For one series, the target named is T1, human CYP3A4 (Homo sapiens, UniProt P08684).
T1 construct: purchased BD Biosciences
In words: Inhibitory effect on CYP3A4 (Luciferin-IPA). Type of series: in vitro ADME. As to conditions: test compound 10 μM, 30-minutes pre-incubation, Luciferin-IPA 3 μM. The procedure: Inhibitory Effect on CYP3A4
The dimethyl sulfoxide (DMSO) solution of the test compound with a concentration 1000 times higher than the evaluation concentration was prepared, and a reaction solution was prepared by diluting the solution. Enzyme reaction was performed by incubating in a potassium phosphate buffer solution (pH 7.4) containing 1 μM to 10 μM test compound, 3.2 mM magnesium chloride, 0.2 pmol human CYP3A4 (BD Biosciences), 0.5 mM reduced nicotinamide adenine dinucleotide phosphate (NADPH) and 3 μM Luciferin-IPA (Promega) at 37° C. for 10 minutes. The volume of the reaction solution was 50 μL/well. The 30-minutes pre-incubation group was incubated at 37° C. for 30 minutes before adding the substrate, the Luciferin-IPA solution (12.5 μL/well). At the end of the enzyme reaction, 50 μL/well of a Luciferin detection reagent (Promega) was added to the wells, and the plate was left at room temperature for 20 minutes. Then, the emission intensities were measured with Infinite M1000 (TECAN), and the enzyme activities (%) relative to the value of the group to which the test compound was not added. As a comparative example, aprepitant, which is an NK1 receptor antagonist, was tested in the same manner.
Test was measured by the above test method, and the results are shown in Table 9 when the concentration of the test compound was 10 μM. In the table, Ex. No. means the Example number, and Pre-incubation (30 min) (%) means the enzyme activities (%) of the 30-minutes pre-incubation groups using the test compounds.

The target in the next series is T2, human NK1 receptor (Homo sapiens, UniProt P25103).
T2 construct: expressed in transfected cells; host or cells: 293T cells (RIKEN), transient transfection with pcDNA3.1(-) plasmid
The experiment in a line: Inhibitory effect on human NK1 receptor (substance P-induced increase in intracellular calcium concentration). It is filed as cell-based. As to conditions: HEK-293T; substance P 0.1 μM; compound 1 μM; human NK1 receptor-expressing 293T cells; vehicle = 100%; read-out: SPRR (%) (Substance P-Response Remaining, intracellular calcium concentration). The procedure: Inhibitory Effect on Human NK1 Receptor
(1) Preparation of Human NK1 Receptor-Expressing Cells
Human NK1 receptor-expressing cells were prepared by the same methods as those described in 2-3 and 2-4 of Test Example 1.
(2) Study on Inhibitory Effect on Increase in Intracellular Calcium Concentration
The human NK1 receptor-expressing cells were washed with 300 μL/well of a washing solution (20 mM HEPES/Hanks Balanced Salt Solution (HBSS) pH7.3). A fluorescent calcium indicator (Fluo-4 Direct Calcium Assay Kit, Life Technologies, containing 0.42 mM probenecid and 0.1% bovine serum albumin, prepared according to the protocol of the product) was added to the wells at 150 μL/well, and the plate was incubated at 37° C. for 30 minutes in an incubator. Then, DMSO solutions of a test compound, which were prepared at an 80-time higher concentration using 100% dimethyl sulfoxide (DMSO), were added to the wells at 2.5 μL/well (final concentrations of 0.1, 1 and 10 μM), and the solutions were mixed. Then, the plate was further incubated at 37° C. for 30 minutes in an incubator. After 30 minutes, the intracellular calcium concentrations were measured immediately.
The intracellular calcium concentrations were each measured as a fluorescent signal using FDSS® 7000 (Hamamatsu Photonics). A substance P (Peptide Institute, Inc.) solution which was prepared at 0.4 μM or 4 μM using an assay buffer (20 mM HEPES/Hanks Balanced Salt Solution (HBSS) pH 7.3 containing 0.1% bovine serum albumin) was added automatically to each well at 50 μL/well (final concentration of 0.1 or 1 μM) 10 seconds after starting reading, and the fluorescent signal was measured up to 120 seconds.
The intracellular calcium concentration (%) of the cells to which a test compound was added was calculated by the equation below, where the fluorescent signal of the group to which the vehicle (DMSO) was added was regarded as 100%, and the fluorescent signal before the addition of substance P was regarded as 0%. Intracellular calcium concentration (%)=(Fluorescent signal of test compound addition group)/(Fluorescent signal of vehicle addition group)×100
The intracellular calcium concentration (%) calculated was regarded as the remaining agonist activity of substance P (Substance P-Response Remaining: SPRR). In the table, Ex. No. means the Example number. SPRR (%) means the value obtained when the concentration of substance P was 0.1 μM and the concentration of the compound was 1 μM.

The values that follow come from patent US10399949B2, “NK1 receptor antagonist” (KISSEI PHARMACEUTICAL CO., LTD., priority 2015, dated 2019).

Structures are written as SMILES.

T2 sequence (P25103 whole entry): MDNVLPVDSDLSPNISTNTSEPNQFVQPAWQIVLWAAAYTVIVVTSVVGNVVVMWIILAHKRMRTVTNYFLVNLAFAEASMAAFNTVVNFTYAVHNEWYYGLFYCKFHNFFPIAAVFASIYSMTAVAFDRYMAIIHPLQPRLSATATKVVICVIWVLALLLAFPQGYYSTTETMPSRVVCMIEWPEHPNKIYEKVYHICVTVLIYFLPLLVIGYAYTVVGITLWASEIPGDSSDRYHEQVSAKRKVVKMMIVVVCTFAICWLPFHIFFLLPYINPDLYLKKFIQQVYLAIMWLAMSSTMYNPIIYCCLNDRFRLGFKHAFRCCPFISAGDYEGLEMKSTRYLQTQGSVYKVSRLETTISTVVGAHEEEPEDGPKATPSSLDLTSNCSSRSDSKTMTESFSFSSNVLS
T1 sequence (P08684 whole entry): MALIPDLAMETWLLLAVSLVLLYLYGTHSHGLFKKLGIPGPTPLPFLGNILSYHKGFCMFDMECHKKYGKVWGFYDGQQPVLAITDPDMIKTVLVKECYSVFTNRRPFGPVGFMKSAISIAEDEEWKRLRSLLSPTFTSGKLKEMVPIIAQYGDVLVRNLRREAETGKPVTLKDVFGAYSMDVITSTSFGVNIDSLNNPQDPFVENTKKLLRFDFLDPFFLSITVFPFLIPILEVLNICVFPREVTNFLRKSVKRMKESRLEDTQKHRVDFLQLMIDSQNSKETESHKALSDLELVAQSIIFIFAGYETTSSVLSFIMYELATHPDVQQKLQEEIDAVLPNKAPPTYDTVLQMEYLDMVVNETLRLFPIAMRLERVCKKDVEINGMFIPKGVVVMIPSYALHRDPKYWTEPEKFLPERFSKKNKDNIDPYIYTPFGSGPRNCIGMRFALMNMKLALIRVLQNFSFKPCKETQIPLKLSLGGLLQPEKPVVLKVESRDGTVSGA

As for `Cc1cc(F)ccc1[C@H]1CN(C[C@H]2CC[C@@H](CC(=O)O)CC2)CCN1C(=O)N(C)[C@H](C)c1cc(C(F)(F)F)cc(C(F)(F)F)c1` [Example 4, cis-{4-[(S)-4-{[(R)-1-(3,5-Bistrifluoromethylphenyl)ethyl]methylcarbamoyl}-3-(4-fluoro-2-methylphenyl)piperazin-1-ylmethyl]cyclohexyl}acetic acid], at human CYP3A4, the “Preincubation (30 min) (%) (enzyme activities relative to group without test compound)” value worked out at 18%. For the same compound, the remaining activity at 1 µM on human NK1 receptor was 2.1%.

In the case of `Cc1cc(F)ccc1[C@H]1CN(C[C@H]2CC[C@H](CC(=O)O)CC2)CCN1C(=O)N(C)[C@H](C)c1cc(C(F)(F)F)cc(C(F)(F)F)c1` [Example 5, trans-{4-[(S)-4-{[(R)-1-(3,5-Bistrifluoromethylphenyl)ethyl]methylcarbamoyl}-3-(4-fluoro-2-methylphenyl)piperazin-1-ylmethyl]cyclohexyl}acetic acid], the “Preincubation (30 min) (%) (enzyme activities relative to group without test compound)” value at human CYP3A4 came out at 21%. Also, the remaining activity at 1 µM on human NK1 receptor was determined as 8.9%.
